Series [1] has as its system Mus musculus. Briefly: Antipruritic activity in histamine-induced scratching ICR mouse model assessed as inhibition of neck scratching behavior at 10 mg/kg, po administered via gavage pretreated for 30 mins followed by histamine stimulation and measured for 30 mins relative to control. Conditions: 1 h, time 60 min. In kind it is functional.
Series [2] has as its system Mus musculus. Briefly: Antipruritic activity in histamine-induced scratching ICR mouse model assessed as number of scratching bouts at 10 mg/kg, po administered via gavage pretreated for 30 mins followed by histamine stimulation and measured for 30 mins (reference value: 123 +/- 6). In kind it is functional. Conditions: time 60 min, 1 h.
For series [3], the species on record is Mus musculus. Nature of the series: Antipruritic activity in carvacrol-induced scratching ICR mouse model assessed as number of scratching bouts at 30 uM, ID pretreated for 30 mins followed by carvacrol stimulation and measured for 30 mins (reference value: 174 +/- 7). In kind it is functional. Conditions: time 60 min, 1 h.
The species entered for series [4] is Mus musculus. Briefly: Antipruritic activity in histamine-induced scratching ICR mouse model assessed as inhibition of neck scratching behavior at 3 uM, ID pretreated for 30 mins followed by histamine stimulation and measured after 10 to 30 mins. In kind it is functional, organism-based. Particulars: time 40-60 min.
Series [5] in a line: Induction of pruritic reaction in ICR mouse assessed as number of scratching bouts at 30 uM, ID measured within 30 mins (reference value: 6 +/- 1 No_Unit). Particulars: other, 0.5 h. In kind it is toxicity.
Series [6] deals with T1, Transient receptor potential cation channel subfamily V member 3 (Homo sapiens) (UniProt Q8NET8).
T1 sequence (whole entry): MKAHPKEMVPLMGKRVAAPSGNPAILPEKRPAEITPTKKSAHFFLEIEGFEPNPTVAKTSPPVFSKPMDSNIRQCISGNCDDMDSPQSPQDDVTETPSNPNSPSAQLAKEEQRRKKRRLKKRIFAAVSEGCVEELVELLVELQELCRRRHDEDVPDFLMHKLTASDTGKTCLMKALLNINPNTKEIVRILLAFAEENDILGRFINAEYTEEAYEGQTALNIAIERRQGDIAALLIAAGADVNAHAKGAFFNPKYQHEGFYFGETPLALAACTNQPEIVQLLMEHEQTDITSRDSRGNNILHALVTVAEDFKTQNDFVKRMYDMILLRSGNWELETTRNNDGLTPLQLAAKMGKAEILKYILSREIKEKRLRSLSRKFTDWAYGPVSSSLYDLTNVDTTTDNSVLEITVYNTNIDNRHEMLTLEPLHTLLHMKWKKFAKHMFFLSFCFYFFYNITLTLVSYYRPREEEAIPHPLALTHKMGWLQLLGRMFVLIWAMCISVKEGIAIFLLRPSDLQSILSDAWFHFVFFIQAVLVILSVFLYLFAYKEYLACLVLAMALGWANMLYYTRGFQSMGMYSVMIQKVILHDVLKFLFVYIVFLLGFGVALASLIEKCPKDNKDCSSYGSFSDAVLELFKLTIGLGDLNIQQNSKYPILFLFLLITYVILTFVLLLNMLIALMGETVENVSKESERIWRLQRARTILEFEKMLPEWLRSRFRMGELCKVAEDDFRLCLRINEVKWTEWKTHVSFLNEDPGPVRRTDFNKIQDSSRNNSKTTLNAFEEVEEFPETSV
Briefly: Inhibition of human TRPV3 expressed in CHO cells assessed as reduction in 2-APB induced maximal channel current at voltage ramps from -80 to +80 mV by whole-cell patch clamp electrophysiology relative to control. In kind it is cell-based. (Patch clamp records ionic current or voltage across a cell membrane.)

The species entered for series [7] is Mus musculus. Nature of the series: Antipruritic activity in histamine-induced scratching ICR mouse model assessed as inhibition of neck scratching behavior at 3 uM, ID pretreated for 30 mins followed by histamine stimulation and measured for 10 mins relative to control. In kind it is functional. Particulars: 40 min.
The species named for series [8] is Mus musculus. Briefly: Antipruritic activity in carvacrol-induced scratching ICR mouse model assessed as number of scratching bouts at 100 uM, ID pretreated for 30 mins followed by carvacrol stimulation and measured for 30 mins (reference value: 174 +/- 7). In kind it is functional. Particulars: time 60 min, 1 h.
Series [9] deals with Transient receptor potential cation channel subfamily A member 1 (Rattus norvegicus) (UniProt Q6RI86). Nature of the series: Inhibition of rat TRPA1 expressed in CHO cells assessed as reduction in AITC-induced intracellular calcium flux at 20 uM measured for 60 mins by Fluo-4-AM dye based fluorescence assay. In kind it is cell-based. (In general: A change in cytosolic calcium serves as a functional read-out for many receptors and channels.)
Sequence of Transient receptor potential cation channel subfamily A member 1 (Rattus norvegicus) (Q6RI86 whole entry): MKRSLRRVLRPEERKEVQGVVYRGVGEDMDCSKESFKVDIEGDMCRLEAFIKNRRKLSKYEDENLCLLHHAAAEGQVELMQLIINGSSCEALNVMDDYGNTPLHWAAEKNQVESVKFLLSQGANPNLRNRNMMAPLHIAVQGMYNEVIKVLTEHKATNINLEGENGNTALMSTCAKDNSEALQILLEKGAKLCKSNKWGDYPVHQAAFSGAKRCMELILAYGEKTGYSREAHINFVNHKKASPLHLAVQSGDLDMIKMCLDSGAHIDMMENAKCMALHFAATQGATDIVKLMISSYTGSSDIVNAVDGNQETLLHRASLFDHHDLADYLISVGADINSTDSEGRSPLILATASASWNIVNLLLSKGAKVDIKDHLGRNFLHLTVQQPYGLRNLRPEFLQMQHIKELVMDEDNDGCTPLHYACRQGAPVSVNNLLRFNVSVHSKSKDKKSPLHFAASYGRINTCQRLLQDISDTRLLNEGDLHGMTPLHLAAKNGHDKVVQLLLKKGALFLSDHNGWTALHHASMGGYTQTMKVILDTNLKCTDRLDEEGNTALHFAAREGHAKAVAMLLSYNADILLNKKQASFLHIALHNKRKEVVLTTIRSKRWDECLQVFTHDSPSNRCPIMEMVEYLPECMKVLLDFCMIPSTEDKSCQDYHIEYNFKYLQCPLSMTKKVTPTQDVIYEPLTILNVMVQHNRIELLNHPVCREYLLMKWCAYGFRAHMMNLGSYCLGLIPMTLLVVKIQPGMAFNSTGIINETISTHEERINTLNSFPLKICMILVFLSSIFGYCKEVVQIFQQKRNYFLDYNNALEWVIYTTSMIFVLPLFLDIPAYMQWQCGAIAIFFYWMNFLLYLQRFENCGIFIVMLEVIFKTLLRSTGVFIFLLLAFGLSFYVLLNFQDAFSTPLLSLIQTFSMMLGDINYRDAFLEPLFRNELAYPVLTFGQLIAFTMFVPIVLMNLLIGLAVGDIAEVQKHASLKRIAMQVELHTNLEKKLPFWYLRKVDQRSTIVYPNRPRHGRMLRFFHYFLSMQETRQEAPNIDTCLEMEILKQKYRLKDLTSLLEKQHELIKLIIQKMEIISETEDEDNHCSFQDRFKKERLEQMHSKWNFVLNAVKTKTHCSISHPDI

For series [10], the target named is Transient receptor potential cation channel subfamily V member 4 (Homo sapiens) (UniProt Q9HBA0). Briefly: Inhibition of human TRPV4 expressed in CHO cells assessed as reduction in GSK1016790A-induced intracellular calcium flux at 20 uM measured for 60 mins by Fluo-4-AM dye based fluorescence assay. In kind it is cell-based.
Sequence of Transient receptor potential cation channel subfamily V member 4 (Homo sapiens) (Q9HBA0 whole entry): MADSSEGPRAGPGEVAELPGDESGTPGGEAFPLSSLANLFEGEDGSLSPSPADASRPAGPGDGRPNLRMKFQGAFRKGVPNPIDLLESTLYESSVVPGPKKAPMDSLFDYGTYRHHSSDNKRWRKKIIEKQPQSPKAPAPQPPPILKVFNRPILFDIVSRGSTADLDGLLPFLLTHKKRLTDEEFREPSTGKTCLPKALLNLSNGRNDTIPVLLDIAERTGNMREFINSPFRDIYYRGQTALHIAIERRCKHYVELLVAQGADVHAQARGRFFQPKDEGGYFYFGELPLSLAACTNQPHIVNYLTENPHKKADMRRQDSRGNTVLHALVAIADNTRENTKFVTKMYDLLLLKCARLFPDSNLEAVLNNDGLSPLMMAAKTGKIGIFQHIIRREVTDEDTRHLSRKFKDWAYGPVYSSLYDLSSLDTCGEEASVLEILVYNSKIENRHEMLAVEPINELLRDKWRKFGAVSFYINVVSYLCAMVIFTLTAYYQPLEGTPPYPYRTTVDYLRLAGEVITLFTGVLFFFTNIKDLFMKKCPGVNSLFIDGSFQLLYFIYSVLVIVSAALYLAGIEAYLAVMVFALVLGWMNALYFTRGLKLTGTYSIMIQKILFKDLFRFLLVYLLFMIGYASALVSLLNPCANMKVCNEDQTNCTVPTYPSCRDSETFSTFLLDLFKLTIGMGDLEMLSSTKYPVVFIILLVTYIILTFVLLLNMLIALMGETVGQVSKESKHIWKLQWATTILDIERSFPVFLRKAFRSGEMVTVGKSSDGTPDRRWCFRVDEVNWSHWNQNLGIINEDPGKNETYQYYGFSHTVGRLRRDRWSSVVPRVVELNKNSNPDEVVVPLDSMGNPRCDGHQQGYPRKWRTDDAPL
The species entered for series [11] is Mus musculus. Briefly: Antipruritic activity in histamine-induced scratching ICR mouse model assessed as number of scratching bouts at 30 uM, ID pretreated for 30 mins followed by histamine stimulation and measured for 30 mins (reference value: 123 +/- 6). In kind it is functional. Particulars: time 60 min, 1 h.
For series [12], the target named is T1, Transient receptor potential cation channel subfamily V member 3 (Homo sapiens). Nature of the series: Inhibition of human TRPV3 expressed in CHO cells assessed as reduction in 2-APB induced channel current at 10 uM at +80 mV by whole-cell patch clamp electrophysiology. In kind it is cell-based.
The species entered for series [13] is Mus musculus. Briefly: Antipruritic activity in histamine-induced scratching ICR mouse model assessed as number of scratching bouts at 0.3 uM, ID pretreated for 30 mins followed by histamine stimulation and measured for 30 mins (reference value: 123 +/- 6). In kind it is functional. Conditions: time 60 min, 1 h.
In series [14] the target is T2, Transient receptor potential cation channel subfamily V member 3 (Homo sapiens, UniProt Q8NET8).
T2 sequence (Q8NET8 whole entry): T1 sequence (whole entry)
Nature of the series: Inhibition of human TRPV3 expressed in CHO cells assessed as reduction in 2-APB induced channel current at -80 mV by whole-cell patch clamp electrophysiology. In kind it is cell-based.

The target in series [15] is T1, Transient receptor potential cation channel subfamily V member 3 (Homo sapiens). Briefly: Inhibition of human TRPV3 expressed in CHO cells assessed as reduction in 2-APB induced channel current at 10 uM at -80 mV by whole-cell patch clamp electrophysiology. In kind it is cell-based.
In series [16] the target is T3, Acid-sensing ion channel 3 (Homo sapiens) (UniProt Q9UHC3).
T3 sequence (whole entry): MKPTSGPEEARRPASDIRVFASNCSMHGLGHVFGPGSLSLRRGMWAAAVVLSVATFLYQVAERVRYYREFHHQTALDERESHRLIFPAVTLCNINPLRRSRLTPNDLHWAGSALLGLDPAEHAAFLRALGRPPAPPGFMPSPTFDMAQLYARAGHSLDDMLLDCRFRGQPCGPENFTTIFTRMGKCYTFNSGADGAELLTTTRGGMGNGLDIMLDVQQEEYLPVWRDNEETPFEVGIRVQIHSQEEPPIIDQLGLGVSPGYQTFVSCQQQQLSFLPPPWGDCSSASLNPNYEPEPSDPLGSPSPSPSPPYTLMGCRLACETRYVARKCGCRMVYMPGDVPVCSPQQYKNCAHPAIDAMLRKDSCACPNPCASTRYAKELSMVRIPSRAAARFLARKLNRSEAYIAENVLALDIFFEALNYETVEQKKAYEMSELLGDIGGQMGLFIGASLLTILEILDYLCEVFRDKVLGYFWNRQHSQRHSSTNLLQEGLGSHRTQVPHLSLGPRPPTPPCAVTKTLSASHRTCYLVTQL
Nature of the series: Inhibition of human ASIC3 expressed in Xenopus Oocytes at 20 uM at holding potential of -50 mV by whole-cell electrophysiology. In kind it is cell-based. Conditions: Oocyte.

For series [17], the target named is T1, Transient receptor potential cation channel subfamily V member 3 (Homo sapiens). Nature of the series: Inhibition of human TRPV3 expressed in CHO cells assessed as reduction in 2-APB induced channel current at +80 mV by whole-cell patch clamp electrophysiology relative to control. In kind it is cell-based.
The target of series [18] is T2, Transient receptor potential cation channel subfamily V member 3. Nature of the series: Inhibition of human TRPV3 expressed in CHO cells assessed as reduction in 2-APB induced channel current at +80 mV by whole-cell patch clamp electrophysiology. In kind it is cell-based.
Another series concerns HaCaT. Nature of the series: Cytotoxicity against human HaCaT cells assessed as reduction in cell viability measured after 24 hrs by MTT assay. In kind it is toxicity, cell-based.
Series [19] has as its target T1, Transient receptor potential cation channel subfamily V member 3 (Homo sapiens). Nature of the series: Inhibition of TRPV3 in human HaCaT cells assessed as reduction in carvacrol-induced calcium influx measured for 60 mins by Fluo-4-AM dye based fluorescence assay relative to control. In kind it is cell-based.
The species entered for series [20] is Mus musculus. Nature of the series: Antipruritic activity in histamine-induced scratching ICR mouse model assessed as number of scratching bouts at 3 uM, ID pretreated for 30 mins followed by histamine stimulation and measured for 30 mins (reference value: 123 +/- 6). In kind it is functional. Conditions: time 60 min, 1 h.
Series [21] can be described thus: Induction of pruritic reaction in ICR mouse assessed as number of scratching bouts at 100 uM, ID measured within 30 mins (reference value: 6 +/- 1 No_Unit). In kind it is toxicity. Particulars: other, 0.5 h.
In series [22] the target is T1, Transient receptor potential cation channel subfamily V member 3 (Homo sapiens). Nature of the series: Irreversible inhibition of human TRPV3 expressed in CHO cells assessed as reduction in 2-APB induced channel current at 10 uM at +80 mV incubated prior to compound washout followed by 2-APB addition by whole-cell patch clamp electrophysiology. In kind it is cell-based.

For series [23] the target is unchanged. Nature of the series: Irreversible inhibition of human TRPV3 expressed in CHO cells assessed as reduction in 2-APB induced channel current at 10 uM at -80 mV incubated prior to compound washout followed by 2-APB addition by whole-cell patch clamp electrophysiology. In kind it is cell-based.
The species named for series [24] is Mus musculus. Briefly: Antipruritic activity in carvacrol-induced scratching ICR mouse model assessed as inhibition of neck scratching behavior at 100 uM, ID pretreated for 30 mins followed by carvacrol stimulation and measured for 30 mins relative to control. Conditions: 1 h, time 60 min. In kind it is functional.
Series [25] deals with T1, Transient receptor potential cation channel subfamily V member 3 (Homo sapiens). Nature of the series: Inhibition of human TRPV3 expressed in CHO cells assessed as reduction in 2-APB induced channel current at -80 mV by whole-cell patch clamp electrophysiology relative to control. In kind it is cell-based.
The target in series [26] is Transient receptor potential cation channel subfamily V member 1 (Rattus norvegicus) (UniProt O35433). Briefly: Inhibition of rat TRPV1 expressed in CHO cells assessed as reduction in capsaicin-induced intracellular calcium flux at 20 uM measured for 60 mins by Fluo-4-AM dye based fluorescence assay. In kind it is cell-based.
Sequence of Transient receptor potential cation channel subfamily V member 1 (Rattus norvegicus) (O35433 whole entry): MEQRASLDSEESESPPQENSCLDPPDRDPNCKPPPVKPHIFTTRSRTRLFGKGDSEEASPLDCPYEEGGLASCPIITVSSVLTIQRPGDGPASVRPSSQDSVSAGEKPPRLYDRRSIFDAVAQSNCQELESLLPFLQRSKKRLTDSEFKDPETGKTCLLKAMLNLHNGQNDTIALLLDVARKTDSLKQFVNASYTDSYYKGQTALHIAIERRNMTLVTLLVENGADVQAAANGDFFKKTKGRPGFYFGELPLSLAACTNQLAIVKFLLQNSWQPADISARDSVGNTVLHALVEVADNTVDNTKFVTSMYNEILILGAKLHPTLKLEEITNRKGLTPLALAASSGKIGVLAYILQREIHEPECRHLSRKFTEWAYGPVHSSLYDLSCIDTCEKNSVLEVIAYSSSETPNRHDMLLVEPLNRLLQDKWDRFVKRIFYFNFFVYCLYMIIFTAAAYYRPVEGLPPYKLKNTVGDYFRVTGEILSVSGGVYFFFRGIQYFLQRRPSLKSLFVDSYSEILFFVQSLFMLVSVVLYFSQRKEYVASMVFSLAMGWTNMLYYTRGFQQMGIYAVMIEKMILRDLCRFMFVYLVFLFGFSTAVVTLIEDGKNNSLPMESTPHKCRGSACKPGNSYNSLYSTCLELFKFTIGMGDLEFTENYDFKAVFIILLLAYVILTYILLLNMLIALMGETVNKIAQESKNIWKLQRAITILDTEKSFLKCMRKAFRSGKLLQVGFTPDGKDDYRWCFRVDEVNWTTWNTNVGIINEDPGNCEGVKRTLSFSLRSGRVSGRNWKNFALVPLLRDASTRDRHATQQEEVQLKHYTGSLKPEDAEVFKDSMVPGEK
Series [27] has as its target T2, Transient receptor potential cation channel subfamily V member 3. Briefly: Inhibition of TRPV3 in human HaCaT cells assessed as reduction in carvacrol-induced calcium influx measured for 60 mins by Fluo-4-AM dye based fluorescence assay. In kind it is cell-based.
Series [28] deals with T4, Acid-sensing ion channel 1 (Rattus norvegicus) (UniProt P55926).
T4 sequence (whole entry): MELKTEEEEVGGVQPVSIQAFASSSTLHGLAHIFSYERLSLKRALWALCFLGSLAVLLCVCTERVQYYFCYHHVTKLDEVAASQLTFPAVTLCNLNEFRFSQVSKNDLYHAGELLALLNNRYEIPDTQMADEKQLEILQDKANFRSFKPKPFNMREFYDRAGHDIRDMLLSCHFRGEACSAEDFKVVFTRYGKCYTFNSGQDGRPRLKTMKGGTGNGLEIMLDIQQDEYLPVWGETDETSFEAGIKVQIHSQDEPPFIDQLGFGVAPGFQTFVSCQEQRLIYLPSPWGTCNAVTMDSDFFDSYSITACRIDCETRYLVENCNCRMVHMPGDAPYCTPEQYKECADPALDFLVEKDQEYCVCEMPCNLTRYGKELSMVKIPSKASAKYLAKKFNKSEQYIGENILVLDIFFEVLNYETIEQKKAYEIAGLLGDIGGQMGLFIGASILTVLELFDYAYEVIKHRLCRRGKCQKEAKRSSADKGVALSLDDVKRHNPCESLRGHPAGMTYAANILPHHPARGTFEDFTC
Nature of the series: Inhibition of rat ASIC1a expressed in Xenopus Oocytes at 20 uM at holding potential of -50 mV by whole-cell electrophysiology. In kind it is cell-based. Conditions: Oocyte.

Series [29] addresses T1, Transient receptor potential cation channel subfamily V member 3 (Homo sapiens). Nature of the series: Inhibition of human TRPV3 expressed in CHO cells assessed as reduction in 2-APB-induced intracellular calcium flux at 20 uM measured for 60 mins by Fluo-4-AM dye based fluorescence assay. In kind it is cell-based.

One may read the inhibition in vivo as the drop in the measured response relative to a control, in per cent. Usually IC50 stands for the concentration at which inhibition is half-maximal.

Activity calls are given as the source filed them. The calls are words filed in the database; no cut-off is given here.

Take `CCOC(=O)N1CCC(=C2c3ccc(Cl)cc3CCc3cccnc32)CC1` [LORATADINE]: the inhibition in vivo at 10 mg/kg with Mus musculus [1] was about 40%. For the same molecule, in the series with Mus musculus [2], the Activity is 72.
`C=C1CC[C@@H]2[C@](C)(CO)[C@H](O)CC[C@@]2(C)[C@@H]1/C=C/C1=CCOC1=O`: the Activity was 178 in the series filed under Mus musculus [3]; 8.1 in series [5]; 129 in the series filed under Mus musculus [8]; 59 in the series filed under Mus musculus [11]; 95 in the series filed under Mus musculus [13]; “Non-Toxic” with HaCaT. Also, the Activity is recorded as 57 in the series listed under Mus musculus [20] and 10.6 in series [21]. Further, the inhibition entry (in the series listed under Mus musculus [4]; in series [12]; in [15]; in series [22]; in series [23]; in [29]) was “Active” throughout. Also, the fold change (FC) in [6] was found to be 2. For the same molecule, in the series filed under Mus musculus [7], the inhibition in vivo at 3 µM is about 40%. Further, the inhibition entry in series [9], in [10], in [16], in [26] and in [28] was “inactive” throughout. For the same molecule, the figures for the IC50 in series [14], in [18] and in series [27] were 560 nM, 800 nM and 850 nM, respectively. Also, the Imax in [17] was found to be 49%; in series [19], 43%; in series [25], 50%. Further, the inhibition in vivo at 100 µM in the series filed under Mus musculus [24] was about 26%.

These data come from ChEMBL document CHEMBL5576094, “A Diterpenoid of the Medicinal Plant Andrographis paniculata Targets Cutaneous TRPV3 Channel and Relieves Itch” (J Nat Prod, 2024).
